Assay results reported in publication PMC9323974, “Palladium(II) Complexes of Substituted Salicylaldehydes: Synthesis, Characterization and Investigation of Their Biological Profile” (Pharmaceuticals, 2022).
Where “and” joins values, the source holds several entries; their conditions need not be identical. Identical values can stand only once. Like-named read-outs stand apart in the source and are kept apart here.

Tests used:
[1] = tested on: Escherichia coli NCTC 29212; assay: MIC determination; type: cell-based; details: for MIC: read-out: MIC E. coli
Method: (§1) S2 Antibacterial activity
(§2) The antimicrobial activity of the compounds was evaluated by determining their respective MIC values towards two Gram–(–) (Escherichia coli NCTC 29212 (E. coli) and Xanthomonas campestris ATCC 1395 (X. campestris)) and two Gram–(+) (Staphylococcus aureus ATCC 6538 (S. aureus) and Bacillus subtilis ATCC 6633 (B. subtilis)) bacterial species. Cultures of these microbial strains were grown on a rich selective agar medium and stored at 4°C. The selective media used were Nutrient Agar or Broth for B. subtilis and S. aureus, Yeast Mold Agar or Broth for X. campestris and Luria Agar or Broth for E. coli. Cells picked from the surface of the stored cultures were used to initiate liquid pre–cultures of the same selective medium at an initial turbidity of roughly 1 McFarland unit. Pre–cultures were incubated for 24 h in a rotary shaking incubator and subsequently they were used to inoculate the test cultures used for the determination of MIC at an initial turbidity of 0.5 McFarland units. The test cultures consisted of Mueller –Hinton broth (Deben Diagnostics Ltd) containing different concentrations of the compounds.
(§3) Different concentrations were achieved as follows: the compounds were freshly dissolved in DMSO to a concentration of 1 mg mL–1 and they were diluted with DMSO, using the method of progressive double dilution. Therefore, working solutions with decreasing concentrations of the compounds under investigation were achieved. The working solutions were subsequently diluted to the final desired concentration by addition to the growth medium at a proportion of 2:98. MIC values were determined as the lowest concentrations of the tested compounds that inhibited visible growth of each respective organism after a 24 h incubation [ S3]. Bacterial growth was determined by measuring the turbidity of appropriately diluted cultures at 600 nm with reference to equally diluted sterile growth medium and the inhibition achieved was calculated by comparing the turbidity of each culture to the average of the turbidity of three non–inhibited cultures. All test cultures were grown in triplicates and for the determination of MIC, growth had to be inhibited in at least two cultures of the triplicate. Incubation temperature at all stages was 37°C except for X. campestris that was cultivated at 28°C [S4].

[2] = tested on: Staphylococcus aureus ATCC 6538; assay: MIC determination; type: cell-based; details: for MIC: read-out: MIC S. aureus
Method: as §1, §2, §3

[3] = tested on: Bacillus subtilis ATCC 6633; assay: MIC determination; type: cell-based; details: for MIC: read-out: MIC B. subtilis
Method: as §1, §2, §3

[4] = tested on: Xanthomonas campestris ATCC 1395; assay: MIC determination; type: cell-based; details: for MIC: Xanthomonas campestris, ATCC1395, 24 h, read-out: MIC X. campestris; for MIC X. campestris: 24 h
Method: as §1, §2, §3

CT DNA = CT DNA binding by UV-vis spectroscopy; parameters: species or system calf; details: Wolfe–Shimer equation
Method: page 8: […] spectroscopy, viscosity measurements and fluorescence emission spectroscopy studies. […] UV-vis spectroscopy was used for the evaluation of the interaction of the compounds with CT DNA, and specifically the possible binding modes of the compounds to CT DNA. Control experiments with DMSO were performed and no changes in the spectra of CT DNA were observed. In order to determine the binding mode, the UV-vis spectra of the compounds were […] concentrations of CT DNA for diverse r (r = [complex]/[DNA]) values. Effective use of the changes […] compounds were calculated by the Wolfe-[…] equation (eq. […] εf) versus [DNA]: (eq. S1) where [DNA] = the concentration of DNA in base pairs, ε f= the extinction coefficient for the free compound at the corresponding λmax, εA = Aobsd/[compound] and εb= the extinction coefficient for the compound in the fully bound form. K b is given by the ratio of slope to the y intercept in plots [DNA]/(εA-εf) versus [DNA]. S3.2 CT DNA-binding studies by viscosity measurements […] presence of increasing amounts of the compounds. The experiments were executed at room temperature and the measurements are devised in a plot (η/η 0)1/3 versus r, where η = the viscosity of DNA in the presence of the compound, and η0 = the viscosity of neat DNA in buffer solution. […] In order to determine and confirm the DNA-binding mode of the compounds, a competitive study with EB as an intercalating marker is performed by fluorescence emission spectroscopy. Therefore, the EB-displacing ability of the compounds from its EB-DNA conjugate was examined. […] solution (150 mM NaCl and 15 mM trisodium citrate at pH 7.0). The potential intercalation of the compounds between the DNA-bases was studied by the addition of a certain amount of the 8 (1 picture or pasted object on this page, not shown here)

[5] = Reduction of hydrogen peroxide; details: compound 0.1 mM
Method: S1 Antioxidant biological assay
The antioxidant activity of the compounds was evaluated via their ability to scavenge in […]
vitro free radicals such as DPPH and ABTS and to reduce H2O2. […]
S1.3 Reduction of hydrogen peroxide
The ability of the compounds to reduce hydrogen peroxide (H2O2) was estimated according […]
to the method described in the literature [S2]. The reaction mixture contained 20 μL of each of the […]
tested compounds (0.1 mM) and 5 μL H 2O2 solution (40 mM) in phosphate buffer (50 mM, pH 7.4).
The absorbance was measured at 230 nm after 10 min. The antioxidant activity (reduction of […]

[6] = Escherichia coli, NCTC29212, 24 h
[7] = Staphylococcus aureus, ATCC6538, 24 h
[8] = Bacillus subtilis, ATCC6633, 24 h

Row | SMILES | MIC [1, 6] | MIC [2, 7] | MIC [3, 8] | MIC [4] | Kb (DNA-binding constant) (CT DNA) | H2O2% [5] [%] | MIC E. coli ([1]; 24 h) [mg/L] | MIC ([1]; 24 h, value in parentheses) [µM] | MIC S. aureus ([2]; 24 h) [mg/L] | MIC ([2]; 24 h, value in parentheses) [µM] | MIC B. subtilis ([3]; 24 h) [mg/L] | MIC ([3]; 24 h, value in parentheses) [µM] | MIC X. campestris [4] [mg/L] | MIC X. campestris ([4]; value in parentheses) [µM]
1 | CCN(CC)c1ccc(C=O)c(O)c1 [4-Et2N-saloH, 4-diethylamino-salicylaldehyde, reference compound] | > 200 µg/mL and > 1040 µM | > 200 µg/mL and > 1040 µM | > 200 µg/mL and > 1040 µM | > 200 µg/mL and > 1040 µM | 5.06 (±0.14) × 10^5 M^−1 | 76.57 ± 0.71 |  |  |  |  |  |  |  | 
2 | COc1ccc(C=O)c(O)c1 [4-OMe-saloH, 4-methoxy-salicylaldehyde, reference compound] | > 200 µg/mL and > 1310 µM | > 200 µg/mL and > 1310 µM | > 200 µg/mL and > 1310 µM | > 200 µg/mL and > 1310 µM |  | 94.24 ± 0.67 |  |  |  |  |  |  |  | 
3 | O=Cc1cc(F)ccc1O [5-F-saloH, 5-fluoro-salicylaldehyde, reference compound] | 200 µg/mL and 1430 µM | 200 µg/mL and 1430 µM | 200 µg/mL and 1430 µM | 200 µg/mL and 1430 µM | 8.37 (±0.47) × 10^4 M^−1 | 71.84 ± 0.95 |  |  |  |  |  |  |  | 
4 | CCN(CC)c1ccc(C=O)c([O][Pd][O]c2cc(N(CC)CC)ccc2C=O)c1 [Complex 1, [Pd(4-Et2N-salo)2]] |  |  |  |  | 3.66 (±0.22) × 10^5 M^−1 | 18.19 ± 0.29 | 100 | 204 | 100 | 204 | 100 | 204 | 200 | 407
5 | O=Cc1cc(Br)cc(Br)c1[O][Pd][O]c1c(Br)cc(Br)cc1C=O [Complex 2, [Pd(3,5-diBr-salo)2]] |  |  |  |  | 3.18 (±0.21) × 10^5 M^−1 | 49.21 ± 0.32 | 25 | 38 | 25 | 38 | 25 | 38 | 25 | 38
6 | O=Cc1cc(Cl)cc(Cl)c1[O-].O=Cc1cc(Cl)cc(Cl)c1[O-].[Pd+2] [Complex 3, [Pd(3,5-diCl-salo)2]] |  |  |  |  | 1.90 (±0.12) × 10^6 M^−1 | 51.26 ± 0.70 | 25 | 51 | 25 | 51 | 50 | 103 | 25 | 51
7 | O=Cc1cc(F)ccc1[O-].O=Cc1cc(F)ccc1[O-].[Pd+2] [Complex 4, [Pd(5-F-salo)2]] |  |  |  |  | 2.84 (±0.14) × 10^5 M^−1 | 48.31 ± 0.67 | 100 | 259 | 100 | 259 | 100 | 259 | 100 | 259
8 | COc1ccc(C=O)c([O-])c1.COc1ccc(C=O)c([O-])c1.[Pd+2] [Complex 5, [Pd(4-OMe-salo)2]] |  |  |  |  | 1.27 (±0.10) × 10^6 M^−1 | 58.38 ± 0.54 | 100 | 245 | 100 | 245 | 100 | 245 | 100 | 245
